Key:
[1] = system: promoter region of the gene encoding human apoAI; test: Activity to enhance the expression of human apoAI: apoAI promoter-firefly luciferase reporter in stably transfected HepG2 cells; format: cell-based; settings: concentration that intensified the luciferase activity twice compared to DMSO control, 24 hours incubation with compound, read-out: MED (minimal effective dose)
Experimental: The promoter region of the gene encoding human apoAI was isolated, and ligated upstream the structure gene of firefly luciferase to construct a reporter plasmid. The reporter plasmid and a marker plasmid conferring the neomycin resistance were co-infected to cell lines derived from human hepatoma, HepG2 cells, and the cell lines were incubated in a selection medium comprising DMEM medium containing 10% fetal calf serum supplemented with G418 (Final concentration: 0.7 mg/mL, Gibco) to give established strains that stably expressed the reporter molecule. The strains were seeded to a 96-well culture plates at a density of 50,000 cells per well, and incubated for 48 hours at 37° C. under an atmosphere of 5% carbon dioxide. Then, a solution of the compounds according to the invention in DMSO was added to the wells at final concentrations of 0 to 10 μg/mL. After further incubation for 24 hours, the cells were added with a luciferase assay reagent (Piccagene LT 7.5 registered trade mark, Toyo Ink, KK), and the luciferase activity was determined using a luminometer (MicroBeta™ TRILUX, 1 sec/well, Wallac). The concentration of the compounds, which intensified the luciferase activity twice compared to that of control (DMSO without any compound of the invention added) was set as the minimal effective dose (MED).

| Structure (SMILES) | EC (2-fold luciferase activity) [1] | melting point |
| --- | --- | --- |
| c1ccc(-c2ccc(-c3ccncn3)cc2)cc1 [Compound I-1] | 0.63 µM | – |
| c1ccc(-c2cnc(-c3ccccc3)nc2)cc1 [Compound I-2] | 0.2 µM | – |
| c1ccc(-c2ccnc(-c3ccccc3)n2)cc1 [Compound I-4] | – | 66 to 69 °C |
| c1ccc(-c2cc(-c3ccccc3)ncn2)cc1 [Compound I-5] | – | 91 to 92 °C |
| c1ccc(-c2cncc(-c3ccccc3)n2)cc1 [Compound I-6] | 3.11 µM | 88.5 to 90 °C |
| c1ccc(-c2ccc(-c3ccccc3)nn2)cc1 [Compound I-7] | 0.04 µM | 218 to 220 °C |
| c1ccc(-c2ccc(-c3ncccn3)cc2)cc1 [Compound I-8] | 0.09 µM | 112 to 113 °C |
| c1ccc(-c2cccc(-c3ncccn3)c2)cc1 [Compound I-9] | – | 46 to 48 °C |
| c1ccc(-c2ccc(-c3cnccn3)cc2)cc1 [Compound I-10] | 0.71 µM | 177 to 178 °C |
| c1ccc(-c2ccc(-c3ccccc3)nc2)cc1 [Compound I-11] | 0.21 µM | 176 to 177 °C |
| c1ccc(-c2nnc(-c3ccccc3)c3ccccc23)cc1 [Compound I-12] | – | 203 to 205 °C |
| COc1ccc(-c2nnc(-c3ccccc3)c3ccccc23)cc1 [Compound I-13] | – | 175 to 177 °C |
| c1ccc(-c2ccc(-c3cnc4ccccc4n3)cc2)cc1 [Compound I-16] | 0.1 µM | – |
| c1ccc(-c2ccc(-c3ccc4ccccc4n3)cc2)cc1 [Compound I-17] | 0.33 µM | – |
| Cc1cc(-c2ccc(-c3ccccc3)cc2)nc2ccccc12 [Compound I-18] | 1.1 µM | – |
| c1ccc(-c2ccc(-c3ccccn3)cc2)cc1 [Compound I-20] | 0.23 µM | – |
| Cc1cccc(-c2ccc(-c3ccccc3)cc2)n1 [Compound I-21] | 2.3 µM | – |

| Structure (SMILES) | EC (2-fold luciferase activity) [1] | melting point |
| --- | --- | --- |
| COc1cccc(-c2ccc(-c3ccccc3)cc2)n1 [Compound I-22] | 0.84 µM | – |
| CCc1cnc(-c2ccc(-c3ccccc3)cc2)nc1 [Compound I-23] | 0.27 µM | – |
| COc1cc(OC)nc(-c2ccc(-c3ccccc3)cc2)n1 [Compound I-24] | 2.2 µM | – |
| c1ccc(-c2ccc(-c3cccnn3)cc2)cc1 [Compound I-25] | 0.29 µM | – |
| Clc1ccc(-c2ccc(-c3ccccc3)cc2)nn1 [Compound I-26] | 0.27 µM | – |
| COc1ccc(-c2ccc(-c3ccccc3)cc2)nn1 [Compound I-27, 3-(4-Biphenyl)-6-methoxypyridazin] | 0.06 µM | – |
| c1ccc(-c2ccc(-c3ccc(-c4ccccc4)nn3)cc2)cc1 [Compound I-28] | 2.5 µM | – |
| COc1nc(OC)nc(-c2ccc(-c3ccccc3)cc2)n1 [Compound I-29] | 2.5 µM | – |
| COc1cccc(-c2cnc(-c3cccc(OC)c3)cn2)c1 [Compound I-35] | 0.29 µM | – |
| c1ccc(-c2ccc(-c3ccsc3)cc2)nc1 [Compound I-36, 2-[4-(3-Thienyl)phenyl]pyridine] | 1.3 µM | – |
| c1ccc(-c2ccc(-c3ccoc3)cc2)nc1 [Compound I-37] | 4.4 µM | – |
| COc1ccc(-c2ccc(-c3ccccn3)cc2)cc1 [Compound I-40] | 0.16 µM | – |
| Cc1ccc(-c2ccc(-c3ccccn3)cc2)cc1 [Compound I-42] | 0.09 µM | – |
| CC(=O)Nc1ccc(-c2ccc(-c3ccccn3)cc2)cc1 [Compound I-43] | 0.3 µM | – |
| C#CC1COc2ccc(-c3c(OC)cc(-c4ccc(O)cc4)c(OC)c3O)cc2O1 (stereo not drawn) [Compound I-44] | 0.6 µM | – |
| COc1cc(-c2ccc(O)cc2)c(OC)c(O)c1-c1ccc2c(c1)OC(O)CO2 (stereo not drawn) [Compound I-45] | 2.4 µM | – |
| COc1cc(-c2ccc(O)cc2)c(OC)c(O)c1-c1ccc(OC/C=N/C2CCN(C)CC2)c(O)c1 [Compound I-48] | 1.6 µM | – |
